Measured values published in ChEMBL document CHEMBL4649997, “Data for probe TP-472” (2021).
pIC50: −log10 of the molar value.

Legend:
[1] = biological target: Peregrin (Homo sapiens, UniProt P55201); assay: Alphascreen assay. Binding to BRPF1B (domain start/stop: M626-G740) by alphascreen assay
[2] = biological target: T1, Chromatin remodeling regulator CECR2 (Homo sapiens, UniProt Q9BXF3); assay: Alphascreen assay. Binding to CECR2A (domain start/stop: P420-D543) by alphascreen assay
[3] = biological target: T1, Chromatin remodeling regulator CECR2; assay: Alphascreen assay. Binding to CECR2A (domain start/stop: P420-H538) by alphascreen assay
[4] = biological target: T2, CREB-binding protein (Homo sapiens, UniProt Q92793); assay: Alphascreen assay. Binding to CREBBPA (domain start/stop: R1081-G1197) by alphascreen assay
[5] = biological target: Histone-lysine N-methyltransferase ASH1L (Homo sapiens) (UniProt Q9NR48); settings: Compound concentration 10.0 uM, Protein concentration 2.0 uM
[6] = biological target: ATPase family AAA domain-containing protein 2 (Homo sapiens) (UniProt Q6PL18); settings: Compound concentration 10.0 uM, Protein concentration 2.0 uM
[7] = biological target: ATPase family AAA domain-containing protein 2B (Homo sapiens) (UniProt Q9ULI0); settings: Compound concentration 10.0 uM, Protein concentration 2.0 uM
[8] = biological target: Bromodomain adjacent to zinc finger domain protein 1A (Homo sapiens) (UniProt Q9NRL2); settings: Compound concentration 10.0 uM, Protein concentration 2.0 uM
[9] = biological target: Tyrosine-protein kinase BAZ1B (Homo sapiens) (UniProt Q9UIG0); settings: Compound concentration 10.0 uM, Protein concentration 2.0 uM
[10] = biological target: Bromodomain adjacent to zinc finger domain protein 2A (Homo sapiens) (UniProt Q9UIF9); settings: Compound concentration 10.0 uM, Protein concentration 2.0 uM
[11] = biological target: Bromodomain adjacent to zinc finger domain protein 2B (Homo sapiens) (UniProt Q9UIF8); settings: Compound concentration 10.0 uM, Protein concentration 2.0 uM
[12] = biological target: Nucleosome-remodeling factor subunit BPTF (Homo sapiens) (UniProt Q12830); settings: Compound concentration 10.0 uM, Protein concentration 2.0 uM
[13] = biological target: Bromodomain-containing protein 1 (Homo sapiens) (UniProt O95696); settings: Compound concentration 10.0 uM, Protein concentration 2.0 uM
[14] = biological target: Bromodomain-containing protein 2 (Homo sapiens) (UniProt P25440); settings: Compound concentration 10.0 uM, Protein concentration 2.0 uM
[15] = biological target: Bromodomain-containing protein 2 (Homo sapiens) (UniProt P25440); settings: Compound concentration 10.0 uM, Protein concentration 2.0 uM; remark: listed apart in the source
[16] = biological target: Bromodomain-containing protein 3 (Homo sapiens) (UniProt Q15059); settings: Compound concentration 10.0 uM, Protein concentration 2.0 uM
[17] = biological target: Bromodomain-containing protein 3 (Homo sapiens) (UniProt Q15059); settings: Compound concentration 10.0 uM, Protein concentration 2.0 uM; remark: listed apart in the source
[18] = biological target: Bromodomain-containing protein 4 (Homo sapiens) (UniProt O60885); settings: Compound concentration 10.0 uM, Protein concentration 2.0 uM
[19] = biological target: Bromodomain-containing protein 7 (Homo sapiens) (UniProt Q9NPI1); settings: Compound concentration 10.0 uM, Protein concentration 2.0 uM
[20] = biological target: Bromodomain-containing protein 9 (Homo sapiens) (UniProt Q9H8M2); settings: Compound concentration 10.0 uM, Protein concentration 2.0 uM
[21] = biological target: Bromodomain testis-specific protein (Homo sapiens) (UniProt Q58F21); settings: Compound concentration 10.0 uM, Protein concentration 2.0 uM
[22] = biological target: Bromodomain testis-specific protein (Homo sapiens) (UniProt Q58F21); settings: Compound concentration 10.0 uM, Protein concentration 2.0 uM; remark: listed apart in the source
[23] = biological target: Peregrin (Homo sapiens) (UniProt P55201); settings: Compound concentration 10.0 uM, Protein concentration 2.0 uM
[24] = biological target: Bromodomain and PHD finger-containing protein 3 (Homo sapiens) (UniProt Q9ULD4); settings: Compound concentration 10.0 uM, Protein concentration 2.0 uM
[25] = biological target: Bromodomain and WD repeat-containing protein 1 (Homo sapiens) (UniProt Q9NSI6); settings: Compound concentration 10.0 uM, Protein concentration 2.0 uM
[26] = biological target: Bromodomain and WD repeat-containing protein 3 (Homo sapiens) (UniProt Q6RI45); settings: Compound concentration 10.0 uM, Protein concentration 2.0 uM
[27] = biological target: T1, Chromatin remodeling regulator CECR2; settings: Compound concentration 10.0 uM, Protein concentration 2.0 uM
[28] = biological target: T2, CREB-binding protein; settings: Compound concentration 10.0 uM, Protein concentration 2.0 uM
[29] = biological target: Histone acetyltransferase p300 (Homo sapiens) (UniProt Q09472); settings: Compound concentration 10.0 uM, Protein concentration 2.0 uM
[30] = biological target: Histone acetyltransferase KAT2A (Homo sapiens) (UniProt Q92830); settings: Compound concentration 10.0 uM, Protein concentration 2.0 uM
[31] = biological target: Histone acetyltransferase KAT2B (Homo sapiens) (UniProt Q92831); settings: Compound concentration 10.0 uM, Protein concentration 2.0 uM
[32] = biological target: Histone-lysine N-methyltransferase 2A (Homo sapiens) (UniProt Q03164); settings: Compound concentration 10.0 uM, Protein concentration 2.0 uM
[33] = biological target: Protein polybromo-1 (Homo sapiens) (UniProt Q86U86); settings: Compound concentration 10.0 uM, Protein concentration 2.0 uM
[34] = biological target: Protein polybromo-1 (Homo sapiens) (UniProt Q86U86); settings: Compound concentration 10.0 uM, Protein concentration 2.0 uM; remark: listed apart in the source
[35] = biological target: Protein polybromo-1 (Homo sapiens) (UniProt Q86U86); settings: Compound concentration 10.0 uM, Protein concentration 2.0 uM; remark: listed apart in the source
[36] = biological target: Protein polybromo-1 (Homo sapiens) (UniProt Q86U86); settings: Compound concentration 10.0 uM, Protein concentration 2.0 uM; remark: listed apart in the source
[37] = biological target: Protein polybromo-1 (Homo sapiens) (UniProt Q86U86); settings: Compound concentration 10.0 uM, Protein concentration 2.0 uM; remark: listed apart in the source
[38] = biological target: Protein polybromo-1 (Homo sapiens) (UniProt Q86U86); settings: Compound concentration 10.0 uM, Protein concentration 2.0 uM; remark: listed apart in the source
[39] = biological target: PH-interacting protein (Homo sapiens) (UniProt Q8WWQ0); settings: Compound concentration 10.0 uM, Protein concentration 2.0 uM
[40] = biological target: SWI/SNF-related matrix-associated actin-dependent regulator of chromatin subfamily A member 2 (Homo sapiens) (UniProt P51531); settings: Compound concentration 10.0 uM, Protein concentration 2.0 uM
[41] = biological target: SWI/SNF-related matrix-associated actin-dependent regulator of chromatin subfamily A member 4 (Homo sapiens) (UniProt P51532); settings: Compound concentration 10.0 uM, Protein concentration 2.0 uM
[42] = biological target: Nuclear body protein SP140 (Homo sapiens) (UniProt Q13342); settings: Compound concentration 10.0 uM, Protein concentration 2.0 uM
[43] = biological target: Nuclear body protein SP140-like protein (Homo sapiens) (UniProt Q9H930); settings: Compound concentration 10.0 uM, Protein concentration 2.0 uM
[44] = biological target: Transcription initiation factor TFIID subunit 1 (Homo sapiens) (UniProt P21675); settings: Compound concentration 10.0 uM, Protein concentration 2.0 uM
[45] = biological target: Transcription initiation factor TFIID subunit 1 (Homo sapiens) (UniProt P21675); settings: Compound concentration 10.0 uM, Protein concentration 2.0 uM; remark: listed apart in the source
[46] = biological target: Transcription initiation factor TFIID subunit 1-like (Homo sapiens) (UniProt Q8IZX4); settings: Compound concentration 10.0 uM, Protein concentration 2.0 uM
[47] = biological target: Transcription initiation factor TFIID subunit 1-like (Homo sapiens) (UniProt Q8IZX4); settings: Compound concentration 10.0 uM, Protein concentration 2.0 uM; remark: listed apart in the source
[48] = biological target: Transcription intermediary factor 1-alpha (Homo sapiens) (UniProt O15164); settings: Compound concentration 10.0 uM, Protein concentration 2.0 uM
[49] = biological target: Transcription intermediary factor 1-beta (Homo sapiens) (UniProt Q13263); settings: Compound concentration 10.0 uM, Protein concentration 2.0 uM
[50] = biological target: Peregrin (Homo sapiens) (UniProt P55201); settings: Compound concentration 10.0 uM, Protein concentration 2.0 uM; remark: listed apart in the source

Sequence of Protein polybromo-1 (Homo sapiens) (Q86U86 whole entry): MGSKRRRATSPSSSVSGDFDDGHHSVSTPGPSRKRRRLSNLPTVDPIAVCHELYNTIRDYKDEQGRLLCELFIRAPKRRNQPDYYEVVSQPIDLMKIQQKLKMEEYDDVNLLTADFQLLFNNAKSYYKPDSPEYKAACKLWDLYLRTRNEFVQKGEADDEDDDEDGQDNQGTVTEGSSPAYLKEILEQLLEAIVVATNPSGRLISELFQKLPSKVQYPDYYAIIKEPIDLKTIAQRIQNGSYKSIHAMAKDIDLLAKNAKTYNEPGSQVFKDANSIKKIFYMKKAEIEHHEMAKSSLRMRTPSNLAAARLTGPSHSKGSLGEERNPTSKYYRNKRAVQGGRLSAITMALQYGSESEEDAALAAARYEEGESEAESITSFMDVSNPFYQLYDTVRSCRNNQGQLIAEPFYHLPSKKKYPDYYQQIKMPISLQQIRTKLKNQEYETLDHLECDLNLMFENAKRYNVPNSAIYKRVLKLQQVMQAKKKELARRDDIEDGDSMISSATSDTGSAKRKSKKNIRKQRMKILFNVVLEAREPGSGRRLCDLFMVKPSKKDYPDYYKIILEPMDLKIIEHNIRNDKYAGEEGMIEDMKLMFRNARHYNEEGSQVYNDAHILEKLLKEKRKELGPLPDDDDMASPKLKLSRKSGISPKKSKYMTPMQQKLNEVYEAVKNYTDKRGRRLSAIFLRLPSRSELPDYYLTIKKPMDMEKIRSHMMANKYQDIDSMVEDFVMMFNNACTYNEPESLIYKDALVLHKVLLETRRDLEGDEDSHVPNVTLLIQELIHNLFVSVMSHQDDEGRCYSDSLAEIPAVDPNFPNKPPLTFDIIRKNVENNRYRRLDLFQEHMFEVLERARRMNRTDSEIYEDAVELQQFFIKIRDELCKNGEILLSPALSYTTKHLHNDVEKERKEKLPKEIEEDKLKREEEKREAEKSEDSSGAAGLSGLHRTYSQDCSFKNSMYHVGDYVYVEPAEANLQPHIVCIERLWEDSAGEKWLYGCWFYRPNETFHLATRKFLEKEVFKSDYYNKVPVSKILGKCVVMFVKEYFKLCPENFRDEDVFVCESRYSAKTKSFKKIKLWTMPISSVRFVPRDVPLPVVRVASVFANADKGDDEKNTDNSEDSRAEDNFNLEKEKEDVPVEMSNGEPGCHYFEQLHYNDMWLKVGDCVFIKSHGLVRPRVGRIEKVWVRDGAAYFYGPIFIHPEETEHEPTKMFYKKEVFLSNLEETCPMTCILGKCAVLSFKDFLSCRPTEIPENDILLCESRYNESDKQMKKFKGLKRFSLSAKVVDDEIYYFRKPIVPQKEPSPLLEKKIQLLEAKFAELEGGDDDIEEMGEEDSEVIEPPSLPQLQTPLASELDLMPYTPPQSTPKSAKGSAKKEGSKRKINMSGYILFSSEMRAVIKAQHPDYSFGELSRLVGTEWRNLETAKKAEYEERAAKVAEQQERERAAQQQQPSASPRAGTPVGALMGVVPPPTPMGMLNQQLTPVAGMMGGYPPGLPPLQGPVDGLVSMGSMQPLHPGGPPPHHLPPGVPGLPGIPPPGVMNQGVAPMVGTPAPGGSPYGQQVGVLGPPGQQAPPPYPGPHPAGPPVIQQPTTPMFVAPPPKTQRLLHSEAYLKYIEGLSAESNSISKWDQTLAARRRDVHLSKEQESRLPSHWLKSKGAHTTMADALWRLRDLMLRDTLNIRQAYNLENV
Sequence of Bromodomain-containing protein 2 (Homo sapiens) (P25440 whole entry, looked up): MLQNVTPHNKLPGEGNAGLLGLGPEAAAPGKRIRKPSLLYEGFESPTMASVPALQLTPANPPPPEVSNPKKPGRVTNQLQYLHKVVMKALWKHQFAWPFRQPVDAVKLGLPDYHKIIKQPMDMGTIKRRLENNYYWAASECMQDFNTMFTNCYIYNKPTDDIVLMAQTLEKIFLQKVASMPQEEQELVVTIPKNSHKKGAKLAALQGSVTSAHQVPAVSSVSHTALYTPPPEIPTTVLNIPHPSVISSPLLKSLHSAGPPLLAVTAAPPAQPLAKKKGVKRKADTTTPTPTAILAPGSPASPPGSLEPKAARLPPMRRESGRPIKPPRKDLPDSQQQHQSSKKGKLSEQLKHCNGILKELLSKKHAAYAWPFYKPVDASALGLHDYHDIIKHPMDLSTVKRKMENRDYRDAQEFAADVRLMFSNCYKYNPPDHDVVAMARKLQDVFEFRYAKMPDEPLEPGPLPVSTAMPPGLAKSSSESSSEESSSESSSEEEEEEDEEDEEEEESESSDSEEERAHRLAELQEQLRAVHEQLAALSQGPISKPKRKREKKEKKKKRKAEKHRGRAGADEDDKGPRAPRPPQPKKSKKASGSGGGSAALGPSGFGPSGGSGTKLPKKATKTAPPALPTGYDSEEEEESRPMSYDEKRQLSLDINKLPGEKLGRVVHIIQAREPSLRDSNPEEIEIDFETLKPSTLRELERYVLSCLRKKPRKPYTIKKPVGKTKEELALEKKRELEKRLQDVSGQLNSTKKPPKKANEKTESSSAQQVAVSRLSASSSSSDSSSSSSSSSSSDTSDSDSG
Sequence of Transcription initiation factor TFIID subunit 1-like (Homo sapiens) (Q8IZX4 whole entry): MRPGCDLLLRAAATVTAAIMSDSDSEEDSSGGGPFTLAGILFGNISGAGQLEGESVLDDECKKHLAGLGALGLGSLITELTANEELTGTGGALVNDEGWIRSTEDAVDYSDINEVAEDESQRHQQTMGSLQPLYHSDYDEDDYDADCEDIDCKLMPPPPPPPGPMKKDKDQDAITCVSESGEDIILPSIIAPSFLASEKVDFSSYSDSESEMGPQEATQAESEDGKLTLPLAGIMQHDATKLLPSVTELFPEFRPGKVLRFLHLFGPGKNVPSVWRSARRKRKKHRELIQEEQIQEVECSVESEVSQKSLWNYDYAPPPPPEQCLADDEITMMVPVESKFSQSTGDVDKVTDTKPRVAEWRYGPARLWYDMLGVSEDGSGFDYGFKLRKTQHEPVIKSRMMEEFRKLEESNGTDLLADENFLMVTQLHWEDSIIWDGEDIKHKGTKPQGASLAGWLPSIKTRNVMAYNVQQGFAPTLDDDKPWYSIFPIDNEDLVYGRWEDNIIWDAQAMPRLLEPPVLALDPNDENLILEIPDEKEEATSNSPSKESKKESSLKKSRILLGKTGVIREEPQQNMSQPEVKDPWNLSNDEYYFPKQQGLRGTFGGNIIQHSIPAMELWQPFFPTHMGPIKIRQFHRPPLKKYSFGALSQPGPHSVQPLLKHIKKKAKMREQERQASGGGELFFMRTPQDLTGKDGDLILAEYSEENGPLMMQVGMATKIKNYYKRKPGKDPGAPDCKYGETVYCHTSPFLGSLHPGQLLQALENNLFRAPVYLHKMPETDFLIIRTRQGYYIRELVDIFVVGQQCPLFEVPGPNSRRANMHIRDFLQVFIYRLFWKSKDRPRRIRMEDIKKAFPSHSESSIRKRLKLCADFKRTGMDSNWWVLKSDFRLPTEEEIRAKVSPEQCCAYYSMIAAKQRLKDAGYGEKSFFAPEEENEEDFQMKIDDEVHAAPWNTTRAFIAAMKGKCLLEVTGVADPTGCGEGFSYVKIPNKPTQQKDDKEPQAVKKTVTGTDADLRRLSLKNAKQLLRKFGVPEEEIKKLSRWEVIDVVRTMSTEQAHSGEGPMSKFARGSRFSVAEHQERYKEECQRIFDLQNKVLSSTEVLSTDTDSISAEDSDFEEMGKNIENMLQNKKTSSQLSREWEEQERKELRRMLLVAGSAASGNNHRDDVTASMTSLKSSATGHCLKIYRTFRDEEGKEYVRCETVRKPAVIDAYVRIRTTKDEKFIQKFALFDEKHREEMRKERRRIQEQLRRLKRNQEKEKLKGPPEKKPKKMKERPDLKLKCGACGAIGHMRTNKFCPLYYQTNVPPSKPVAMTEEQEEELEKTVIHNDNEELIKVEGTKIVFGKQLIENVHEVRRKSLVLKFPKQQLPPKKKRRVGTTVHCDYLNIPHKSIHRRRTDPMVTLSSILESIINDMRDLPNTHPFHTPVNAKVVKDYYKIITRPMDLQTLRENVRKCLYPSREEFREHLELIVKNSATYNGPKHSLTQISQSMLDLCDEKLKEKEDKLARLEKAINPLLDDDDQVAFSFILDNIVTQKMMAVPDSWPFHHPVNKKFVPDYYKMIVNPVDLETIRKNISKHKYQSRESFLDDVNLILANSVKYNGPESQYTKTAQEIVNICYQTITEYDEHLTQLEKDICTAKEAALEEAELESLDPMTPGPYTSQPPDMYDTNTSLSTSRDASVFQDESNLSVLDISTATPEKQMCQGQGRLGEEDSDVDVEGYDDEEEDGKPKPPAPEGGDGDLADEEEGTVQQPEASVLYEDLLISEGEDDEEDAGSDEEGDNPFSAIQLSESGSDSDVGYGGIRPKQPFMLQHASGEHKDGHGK
Sequence of Bromodomain-containing protein 3 (Homo sapiens) (Q15059 2-726 limits assumed): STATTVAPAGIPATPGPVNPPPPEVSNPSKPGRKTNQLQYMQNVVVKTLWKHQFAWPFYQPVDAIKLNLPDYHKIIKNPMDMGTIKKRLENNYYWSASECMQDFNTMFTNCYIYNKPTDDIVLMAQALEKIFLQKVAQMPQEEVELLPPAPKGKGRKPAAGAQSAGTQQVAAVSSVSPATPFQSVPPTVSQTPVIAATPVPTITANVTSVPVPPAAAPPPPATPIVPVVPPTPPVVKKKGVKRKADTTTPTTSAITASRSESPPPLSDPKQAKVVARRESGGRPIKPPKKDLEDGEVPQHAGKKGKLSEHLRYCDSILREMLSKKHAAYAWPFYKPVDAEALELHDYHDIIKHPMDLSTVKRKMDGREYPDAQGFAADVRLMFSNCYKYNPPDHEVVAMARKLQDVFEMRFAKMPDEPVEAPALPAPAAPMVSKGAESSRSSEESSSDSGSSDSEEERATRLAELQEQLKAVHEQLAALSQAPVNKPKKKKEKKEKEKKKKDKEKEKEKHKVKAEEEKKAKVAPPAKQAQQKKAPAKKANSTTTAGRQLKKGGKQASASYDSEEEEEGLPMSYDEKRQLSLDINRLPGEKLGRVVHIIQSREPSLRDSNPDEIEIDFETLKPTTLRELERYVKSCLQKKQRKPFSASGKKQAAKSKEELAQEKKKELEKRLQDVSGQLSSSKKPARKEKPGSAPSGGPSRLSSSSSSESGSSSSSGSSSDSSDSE

Question: CC(=O)c1cc(-c2cc(C(=O)NC3CC3)ccc2C)c2ncccn12 was tested. Which pIC50 [1] did it give?
Answer: 5.65

Question: And the pIC50 [2]?
Answer: 5.62

Question: And the pIC50 [3]?
Answer: 5.62

Question: And the pIC50 [4]?
Answer: 5.46

Question: What about the ΔTm [5] of the same compound?
Answer: 0.38 °C

Question: What about the ΔTm [6] of the same compound?
Answer: 0.18 °C

Question: What about the ΔTm [7] of the same compound?
Answer: 0.11 °C

Question: And the ΔTm [8]?
Answer: 1.19 °C

Question: What about the ΔTm [9] of the same compound?
Answer: 0.68 °C

Question: What about the ΔTm [10] of the same compound?
Answer: 1.02 °C

Question: What about the ΔTm [11] of the same compound?
Answer: 1.04 °C

Question: What about the ΔTm [12] of the same compound?
Answer: -0.04 °C

Question: What about the ΔTm [13] of the same compound?
Answer: 0.25 °C

Question: What about the ΔTm [14] of the same compound?
Answer: 1.14 °C

Question: What about the ΔTm [15] of the same compound?
Answer: 0.84 °C

Question: What about the ΔTm [16] of the same compound?
Answer: 1.01 °C

Question: And the ΔTm [17]?
Answer: 0.91 °C

Question: And the ΔTm [18]?
Answer: 1.78 °C

Question: What about the ΔTm [19] of the same compound?
Answer: 6.98 °C

Question: And the ΔTm [20]?
Answer: 9.32 °C

Question: What about the ΔTm [21] of the same compound?
Answer: 0.61 °C

Question: And the ΔTm [22]?
Answer: 0.83 °C

Question: What about the ΔTm [23] of the same compound?
Answer: 0.67 °C

Question: And the ΔTm [24]?
Answer: 0.4 °C

Question: What about the ΔTm [25] of the same compound?
Answer: 0.79 °C

Question: And the ΔTm [26]?
Answer: 1.67 °C

Question: And the ΔTm [27]?
Answer: 3.76 °C

Question: And the ΔTm [28]?
Answer: 2.98 °C

Question: What about the ΔTm [29] of the same compound?
Answer: 3.55 °C

Question: What about the ΔTm [30] of the same compound?
Answer: 0.61 °C

Question: What about the ΔTm [31] of the same compound?
Answer: 0.7 °C

Question: And the ΔTm [32]?
Answer: 0.02 °C

Question: And the ΔTm [33]?
Answer: -0.26 °C

Question: What about the ΔTm [34] of the same compound?
Answer: -0.13 °C

Question: What about the ΔTm [35] of the same compound?
Answer: 0.08 °C

Question: And the ΔTm [36]?
Answer: 0.08 °C

Question: And the ΔTm [37]?
Answer: 0.19 °C

Question: What about the ΔTm [38] of the same compound?
Answer: -0.01 °C

Question: What about the ΔTm [39] of the same compound?
Answer: 0.41 °C

Question: What about the ΔTm [40] of the same compound?
Answer: 0.13 °C

Question: What about the ΔTm [41] of the same compound?
Answer: 0.08 °C

Question: And the ΔTm [42]?
Answer: 0.3 °C

Question: What about the ΔTm [43] of the same compound?
Answer: 0.95 °C

Question: And the ΔTm [44]?
Answer: 1.04 °C

Question: What about the ΔTm [45] of the same compound?
Answer: 0.25 °C

Question: And the ΔTm [46]?
Answer: 0.18 °C

Question: And the ΔTm [47]?
Answer: 1.64 °C

Question: What about the ΔTm [48] of the same compound?
Answer: 1.33 °C

Question: And the ΔTm [49]?
Answer: -0.06 °C

Question: What about the ΔTm [50] of the same compound?
Answer: 0.29 °C
